Data reported in ChEMBL document CHEMBL1201862, “PubChem BioAssay data set” (2004).
The source made the active and inactive calls.

How the values were obtained:
[1] = target: Photoreceptor-specific nuclear receptor (Homo sapiens, UniProt Q9Y5X4); type: functional;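 note: potency for compounds that break the NR2E3 corepressor complex and count as activators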
[2] = target: Peroxisome proliferator-activated receptor gamma/Nuclear receptor corepressor 2 (Homo sapiens, UniProt P37231+Q9Y618); type: functional
[3] = HEK-293T cell viability reduction – luminescence, B-cell screen hits, cytotoxicity control for BCR NF-kB inhibitor project, dose response (AID 489021); type: functional, cell-based;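 note: HEK-293T cells carrying an NF-kB luciferase reporter; cells exposed to compound for about 14 hours before viability readout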
[4] = target: G-protein coupled receptor 55 (Homo sapiens, UniProt Q9Y2T6); assay: selective activators of receptor GPR55 – imaging, U2OS cells, beta-arrestin-GFP redistribution, primary screen (AID 1961); type: functional
HEK293 = assay: Fluorescence-based counterscreen for potentiators or agonists of NPY-Y2: cell-based high-throughput dose response assay to identify inhibitors of cyclic nucleotide gated ion channel (CNGC) activity. In this assay, the parental HEK293 cell line transfected with a cyclic-nucleotide gated ion channel (CNGC)-based cAMP sensor is used to measure inhibition of isoproterenol-induced CNGC activity by test compound.; type: functional; conditions: Homo sapiens;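 note: stimulus is 1 µM isoproterenol at EC100 plus PDE inhibitor Ro 20-1724 at 25 µM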
[5] = target: T1, Neuropeptide Y receptor type 1 (Homo sapiens, UniProt P25929); assay: Fluorescence-based counterscreen for agonists of NPY-Y2: cell-based high-throughput dose response assay for agonists of NPY-Y1.; type: functional
T1 sequence (P25929 whole entry): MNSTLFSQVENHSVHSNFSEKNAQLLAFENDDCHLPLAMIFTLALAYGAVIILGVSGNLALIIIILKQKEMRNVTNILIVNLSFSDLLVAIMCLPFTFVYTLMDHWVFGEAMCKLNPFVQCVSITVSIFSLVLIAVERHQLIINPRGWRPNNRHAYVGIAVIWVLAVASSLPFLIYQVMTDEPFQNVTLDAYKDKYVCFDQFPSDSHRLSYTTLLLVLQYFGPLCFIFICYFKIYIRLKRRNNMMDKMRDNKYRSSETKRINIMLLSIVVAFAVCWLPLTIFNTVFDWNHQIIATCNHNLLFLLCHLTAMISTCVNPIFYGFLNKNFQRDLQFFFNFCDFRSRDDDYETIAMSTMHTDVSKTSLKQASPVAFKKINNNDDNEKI

[6] = target: T2, Neuropeptide Y receptor type 2 (Homo sapiens, UniProt P49146); assay: Fluorescence-based cell-based high-throughput dose response assay for agonists of NPY-Y2. [Related pubchem assays: 1703 (Screening assay (CNGC inhibitors).), 1359 (Screening assay (NPY-Y2 potentiators or agonists).), 1304 (Screening assay (NPY-Y1 potentiators or agonists).), 1710 (Screening assay (NPY-Y2 agonists).), 1791 (Summary AID.)]; type: functional
T2 sequence (P49146 whole entry): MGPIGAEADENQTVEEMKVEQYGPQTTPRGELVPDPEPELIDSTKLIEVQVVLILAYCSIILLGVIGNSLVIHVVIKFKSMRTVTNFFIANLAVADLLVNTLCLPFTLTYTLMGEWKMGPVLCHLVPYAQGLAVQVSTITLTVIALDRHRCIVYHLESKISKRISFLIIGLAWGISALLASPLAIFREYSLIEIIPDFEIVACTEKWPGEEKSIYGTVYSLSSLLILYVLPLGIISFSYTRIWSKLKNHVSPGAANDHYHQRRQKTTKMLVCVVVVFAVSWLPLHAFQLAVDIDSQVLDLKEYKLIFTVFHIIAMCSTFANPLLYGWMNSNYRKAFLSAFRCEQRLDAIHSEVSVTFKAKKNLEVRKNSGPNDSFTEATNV

[7] = A cytotoxicity screen of small molecule inhibitors of the PhoP region in Salmonella typhi identified in the primary screen. [Related pubchem assays: 1850, 1864, 1985 ]; type: functional
SUMO-activating enzyme [8] = target: T3, SUMO-activating enzyme (Homo sapiens, UniProt Q9UBT2); assay: blockers of SAE1/SAE2–UBC9 SUMO transfer – biochemical, HTRF, uHTS, primary screen (AID 2006); type: protein-complex assay
[9] = target: Eukaryotic translation initiation factor 4E (Mus musculus, UniProt P63073); assay: blockers of eIF4G binding by eIF4E – biochemical, TR-FRET, dose response (AID 855); type: functional;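 note: potency for disrupting eIF4E binding to eIF4GI seen as loss of FRET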
SUMO-activating enzyme [10] = target: T3, SUMO-activating enzyme; assay: blockers of UBC9-mediated SUMO conjugation – biochemical, AlphaScreen, SUMOylation inhibitor project, confirmation (AID 2018); type: functional
[11] = target: T4, Long-chain-fatty-acid--AMP ligase FadD28 (Mycobacterium tuberculosis, UniProt P9WQ59); assay: Fluorescence polarization aasay to screen for inhibitors that compete for the binding of FadD28 to a bisubstrate Measured in Biochemical System Using Plate Reader - 2147-01_Inhibitor_Dose_CherryPick_Activity.; type: functional, Mycobacterium tuberculosis H37Rv
T4 sequence (P9WQ59 whole entry): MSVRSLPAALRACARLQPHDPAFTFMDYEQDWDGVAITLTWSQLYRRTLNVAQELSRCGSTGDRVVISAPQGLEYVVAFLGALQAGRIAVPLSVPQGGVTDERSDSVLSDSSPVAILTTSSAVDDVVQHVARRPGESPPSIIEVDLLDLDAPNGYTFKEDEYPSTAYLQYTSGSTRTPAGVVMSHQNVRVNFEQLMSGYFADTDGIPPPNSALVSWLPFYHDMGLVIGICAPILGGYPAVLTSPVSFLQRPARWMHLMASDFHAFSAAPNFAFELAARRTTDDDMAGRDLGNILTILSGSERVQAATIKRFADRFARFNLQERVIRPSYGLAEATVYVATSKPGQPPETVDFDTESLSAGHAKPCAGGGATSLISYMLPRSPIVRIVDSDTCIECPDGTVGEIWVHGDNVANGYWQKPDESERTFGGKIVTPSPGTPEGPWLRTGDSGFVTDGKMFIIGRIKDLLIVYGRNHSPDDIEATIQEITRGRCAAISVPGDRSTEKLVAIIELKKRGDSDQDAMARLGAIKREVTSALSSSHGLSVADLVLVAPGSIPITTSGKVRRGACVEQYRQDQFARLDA

[12] = target: Lysosomal acid glucosylceramidase (Homo sapiens, UniProt P04062); assay: Dose response cell-based high throughput screening assay to identify enhancers of beta-glucosidase activity. [Related pubchem assays: 784 ]; type: functional
[13] = target: T5, Type-1 angiotensin II receptor (Homo sapiens, UniProt P30556); assay: agonist activity at AGTR1 – cell-based, uHTS hits, selectivity assay for APJ receptor agonist project, dose response (AID 488865); type: functional;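 note: beta-arrestin recruitment to AT1 measured by enzyme fragment complementation luminescence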
T5 sequence (P30556 whole entry): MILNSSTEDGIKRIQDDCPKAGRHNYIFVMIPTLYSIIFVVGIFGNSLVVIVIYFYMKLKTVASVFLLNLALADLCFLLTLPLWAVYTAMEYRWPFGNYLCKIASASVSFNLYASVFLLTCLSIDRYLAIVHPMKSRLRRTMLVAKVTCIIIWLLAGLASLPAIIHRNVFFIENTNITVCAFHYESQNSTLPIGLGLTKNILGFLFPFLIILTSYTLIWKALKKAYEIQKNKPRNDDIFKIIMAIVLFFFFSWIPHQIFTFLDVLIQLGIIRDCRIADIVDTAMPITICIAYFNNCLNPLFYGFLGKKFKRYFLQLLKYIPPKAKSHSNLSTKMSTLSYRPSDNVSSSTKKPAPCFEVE

T3 sequence (Q9UBE0 whole entry): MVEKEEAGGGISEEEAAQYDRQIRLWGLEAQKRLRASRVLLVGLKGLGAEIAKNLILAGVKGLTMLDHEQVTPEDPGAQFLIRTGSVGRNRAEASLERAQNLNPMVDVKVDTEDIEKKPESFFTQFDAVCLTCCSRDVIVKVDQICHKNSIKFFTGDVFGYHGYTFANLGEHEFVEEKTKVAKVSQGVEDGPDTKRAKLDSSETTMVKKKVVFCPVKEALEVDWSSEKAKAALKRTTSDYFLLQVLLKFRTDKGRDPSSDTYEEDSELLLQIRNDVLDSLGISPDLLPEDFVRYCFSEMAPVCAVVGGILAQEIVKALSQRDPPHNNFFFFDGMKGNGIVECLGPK
T3 sequence (Q9UBT2 whole entry): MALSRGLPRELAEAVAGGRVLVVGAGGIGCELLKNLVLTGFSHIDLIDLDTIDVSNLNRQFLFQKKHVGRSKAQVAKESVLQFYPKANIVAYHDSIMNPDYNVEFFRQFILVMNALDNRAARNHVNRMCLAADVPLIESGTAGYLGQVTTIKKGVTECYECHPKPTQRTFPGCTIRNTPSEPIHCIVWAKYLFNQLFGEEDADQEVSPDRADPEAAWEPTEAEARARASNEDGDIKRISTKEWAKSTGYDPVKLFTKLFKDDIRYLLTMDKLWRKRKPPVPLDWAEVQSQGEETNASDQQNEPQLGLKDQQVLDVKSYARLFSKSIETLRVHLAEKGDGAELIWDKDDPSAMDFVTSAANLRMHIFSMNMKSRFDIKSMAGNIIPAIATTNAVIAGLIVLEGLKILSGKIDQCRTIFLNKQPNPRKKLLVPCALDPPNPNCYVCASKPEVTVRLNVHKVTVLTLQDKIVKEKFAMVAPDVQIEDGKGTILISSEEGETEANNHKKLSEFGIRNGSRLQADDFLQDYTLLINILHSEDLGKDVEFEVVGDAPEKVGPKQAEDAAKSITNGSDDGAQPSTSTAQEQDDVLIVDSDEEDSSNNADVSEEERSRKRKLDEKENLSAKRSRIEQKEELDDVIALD
Sequence of Lysosomal acid glucosylceramidase (P04062 whole entry, the tested form may be a part): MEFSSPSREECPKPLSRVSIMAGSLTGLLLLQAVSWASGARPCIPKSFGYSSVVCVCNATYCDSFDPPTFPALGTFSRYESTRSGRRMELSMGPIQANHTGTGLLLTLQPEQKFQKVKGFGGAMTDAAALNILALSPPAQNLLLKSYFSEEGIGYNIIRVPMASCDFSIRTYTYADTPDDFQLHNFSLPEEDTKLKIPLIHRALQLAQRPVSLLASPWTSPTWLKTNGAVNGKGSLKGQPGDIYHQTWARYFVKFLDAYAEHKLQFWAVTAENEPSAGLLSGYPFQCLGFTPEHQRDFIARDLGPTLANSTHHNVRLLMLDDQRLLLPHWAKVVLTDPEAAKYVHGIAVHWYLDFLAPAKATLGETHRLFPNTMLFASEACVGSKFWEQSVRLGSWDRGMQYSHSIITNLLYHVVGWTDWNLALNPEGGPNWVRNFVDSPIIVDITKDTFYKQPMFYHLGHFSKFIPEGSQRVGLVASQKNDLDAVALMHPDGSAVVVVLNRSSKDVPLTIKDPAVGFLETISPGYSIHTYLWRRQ
Sequence of Peroxisome proliferator-activated receptor gamma/Nuclear receptor corepressor 2 (P37231 whole entry): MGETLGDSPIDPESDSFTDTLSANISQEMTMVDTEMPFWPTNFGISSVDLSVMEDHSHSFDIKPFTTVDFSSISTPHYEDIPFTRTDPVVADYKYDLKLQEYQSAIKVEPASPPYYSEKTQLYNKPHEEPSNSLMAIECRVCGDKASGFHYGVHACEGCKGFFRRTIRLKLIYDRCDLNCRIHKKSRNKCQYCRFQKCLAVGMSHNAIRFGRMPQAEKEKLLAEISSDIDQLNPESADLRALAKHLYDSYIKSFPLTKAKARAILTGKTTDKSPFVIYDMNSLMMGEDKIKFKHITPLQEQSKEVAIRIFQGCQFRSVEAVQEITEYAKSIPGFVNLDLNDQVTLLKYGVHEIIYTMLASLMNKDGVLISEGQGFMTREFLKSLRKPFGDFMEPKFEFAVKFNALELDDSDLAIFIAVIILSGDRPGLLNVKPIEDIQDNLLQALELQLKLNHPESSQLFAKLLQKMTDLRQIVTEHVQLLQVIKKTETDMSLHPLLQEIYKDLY
Sequence of Peroxisome proliferator-activated receptor gamma/Nuclear receptor corepressor 2 (Q9Y618 whole entry): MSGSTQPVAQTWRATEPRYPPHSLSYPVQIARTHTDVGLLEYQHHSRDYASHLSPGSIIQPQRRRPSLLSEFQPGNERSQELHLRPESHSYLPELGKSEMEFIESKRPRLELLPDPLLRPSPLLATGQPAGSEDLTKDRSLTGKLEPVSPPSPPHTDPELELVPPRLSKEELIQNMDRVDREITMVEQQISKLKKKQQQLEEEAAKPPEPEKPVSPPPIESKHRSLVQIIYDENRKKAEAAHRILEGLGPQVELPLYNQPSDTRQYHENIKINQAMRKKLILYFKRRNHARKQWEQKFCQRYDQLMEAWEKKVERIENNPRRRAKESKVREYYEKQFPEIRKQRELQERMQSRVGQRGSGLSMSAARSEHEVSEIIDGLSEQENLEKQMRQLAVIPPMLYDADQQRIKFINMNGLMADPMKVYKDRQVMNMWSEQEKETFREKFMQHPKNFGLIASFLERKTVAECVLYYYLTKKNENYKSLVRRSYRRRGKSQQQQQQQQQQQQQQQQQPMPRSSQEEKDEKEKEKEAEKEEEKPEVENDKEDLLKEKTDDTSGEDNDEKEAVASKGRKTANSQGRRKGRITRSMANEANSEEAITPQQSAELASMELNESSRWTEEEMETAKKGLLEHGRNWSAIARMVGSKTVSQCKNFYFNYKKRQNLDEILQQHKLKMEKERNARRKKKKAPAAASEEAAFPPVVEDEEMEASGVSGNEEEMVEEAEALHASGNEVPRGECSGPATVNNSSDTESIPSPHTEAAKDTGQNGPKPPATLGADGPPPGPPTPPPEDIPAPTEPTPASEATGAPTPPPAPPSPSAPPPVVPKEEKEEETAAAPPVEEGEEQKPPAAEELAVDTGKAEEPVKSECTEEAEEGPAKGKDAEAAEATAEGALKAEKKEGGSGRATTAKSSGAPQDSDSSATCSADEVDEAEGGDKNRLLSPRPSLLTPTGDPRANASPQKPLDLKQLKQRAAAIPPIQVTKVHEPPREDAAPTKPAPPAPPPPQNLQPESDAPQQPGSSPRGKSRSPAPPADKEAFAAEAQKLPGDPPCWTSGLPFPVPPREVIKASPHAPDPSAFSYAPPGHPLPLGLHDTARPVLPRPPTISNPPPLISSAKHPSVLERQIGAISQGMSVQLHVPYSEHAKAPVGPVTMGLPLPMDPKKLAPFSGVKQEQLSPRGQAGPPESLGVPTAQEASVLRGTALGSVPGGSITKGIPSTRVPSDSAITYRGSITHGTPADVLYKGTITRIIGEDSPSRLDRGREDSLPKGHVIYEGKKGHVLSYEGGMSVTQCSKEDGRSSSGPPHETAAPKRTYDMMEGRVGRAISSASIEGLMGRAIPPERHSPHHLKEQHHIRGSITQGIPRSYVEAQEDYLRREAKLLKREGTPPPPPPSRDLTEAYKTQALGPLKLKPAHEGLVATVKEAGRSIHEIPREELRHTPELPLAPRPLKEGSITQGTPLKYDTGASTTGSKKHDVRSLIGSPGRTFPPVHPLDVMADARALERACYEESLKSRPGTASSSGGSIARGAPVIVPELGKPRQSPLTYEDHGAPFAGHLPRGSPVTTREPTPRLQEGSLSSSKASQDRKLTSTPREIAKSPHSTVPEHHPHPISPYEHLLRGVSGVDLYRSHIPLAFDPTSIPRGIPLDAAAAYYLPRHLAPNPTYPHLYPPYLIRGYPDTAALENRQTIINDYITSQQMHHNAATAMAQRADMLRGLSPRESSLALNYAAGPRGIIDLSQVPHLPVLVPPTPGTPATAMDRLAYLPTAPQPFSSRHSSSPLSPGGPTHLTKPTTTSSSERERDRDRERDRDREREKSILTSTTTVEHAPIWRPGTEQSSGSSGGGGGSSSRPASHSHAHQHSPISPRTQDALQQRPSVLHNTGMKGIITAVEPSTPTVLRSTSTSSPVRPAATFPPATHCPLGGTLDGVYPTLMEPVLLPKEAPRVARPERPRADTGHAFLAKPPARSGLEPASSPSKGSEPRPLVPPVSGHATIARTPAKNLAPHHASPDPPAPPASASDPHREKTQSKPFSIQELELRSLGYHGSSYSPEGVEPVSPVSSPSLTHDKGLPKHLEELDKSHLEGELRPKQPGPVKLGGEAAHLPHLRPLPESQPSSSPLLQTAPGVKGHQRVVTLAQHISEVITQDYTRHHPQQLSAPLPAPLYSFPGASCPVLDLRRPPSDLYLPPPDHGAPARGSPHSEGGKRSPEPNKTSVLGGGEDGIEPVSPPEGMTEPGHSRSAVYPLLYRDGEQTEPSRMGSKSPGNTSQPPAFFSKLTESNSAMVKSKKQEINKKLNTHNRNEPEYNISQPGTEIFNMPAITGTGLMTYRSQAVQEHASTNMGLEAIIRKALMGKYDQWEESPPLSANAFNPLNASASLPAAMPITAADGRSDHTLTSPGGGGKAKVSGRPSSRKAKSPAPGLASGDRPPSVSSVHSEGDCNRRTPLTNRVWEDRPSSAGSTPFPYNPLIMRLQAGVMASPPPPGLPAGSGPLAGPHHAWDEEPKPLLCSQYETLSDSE
Sequence of Photoreceptor-specific nuclear receptor (Q9Y5X4 whole entry): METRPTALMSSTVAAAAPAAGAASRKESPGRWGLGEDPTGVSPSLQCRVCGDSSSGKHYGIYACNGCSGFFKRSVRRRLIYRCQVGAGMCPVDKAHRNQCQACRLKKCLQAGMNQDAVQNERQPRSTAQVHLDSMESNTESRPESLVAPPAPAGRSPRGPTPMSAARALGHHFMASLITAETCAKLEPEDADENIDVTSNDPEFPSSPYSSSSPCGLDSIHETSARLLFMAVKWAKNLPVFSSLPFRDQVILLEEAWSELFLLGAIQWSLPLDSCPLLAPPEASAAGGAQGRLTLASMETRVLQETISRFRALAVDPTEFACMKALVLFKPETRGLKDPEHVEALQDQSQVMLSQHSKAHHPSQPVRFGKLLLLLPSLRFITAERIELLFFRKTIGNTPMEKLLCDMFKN

**Q.** For `O=C(C1=C(O)C(=O)N(CCN2CCOCC2)C1c1ccc(Cl)cc1)c1cc2ccccc2o1` (stereo not given), which IC50 [1] is on record?
**A.** Its IC50 is > 39.8 µM (not active).

**Q.** And the IC50 [2]?
**A.** Its IC50 is 9.92 µM (active).

**Q.** With `Cc1cc(C)c2nc(NC(=O)C3CSC4(C)CCC(=O)N34)sc2c1` (stereo not given) as the compound, how does the IC50 [3] read?
**A.** Its IC50 is > 80 µM (inactive).

**Q.** Which EC50 [4] does the source give for `Cc1cc(C)c(/C=N/NC(=O)c2nnn(-c3nonc3N)c2CN2CCC(C)CC2)c(C)c1` here?
**A.** Its EC50 is 8.18 µM (active).

**Q.** Which results are given for `N#Cc1c(Cl)nsc1NN`?
**A.** EC50 (HEK293): 9.97 µM (active); EC50 [5]: 7.05 µM (active); EC50 [6]: 9.25 µM (active)

**Q.** With `COc1nccnc1NS(=O)(=O)c1ccc(NC(=S)NC(=O)c2cccnc2)cc1` as the compound, how does the EC50 [7] read?
**A.** Its EC50 is > 50 µM (active).

**Q.** Which IC50 (SUMO-activating enzyme [8]) does the source give for `Cc1ccc(NC(=O)CN2C(=O)S/C(=C\c3ccc(-c4cccc(C(=O)O)c4C)o3)C2=O)cc1C` here?
**A.** Its IC50 is 6.48 µM (active).

**Q.** And the IC50 [9]?
**A.** The IC50 was 27.9 µM (active).

**Q.** What about the IC50 (SUMO-activating enzyme [10]) of the same compound?
**A.** Its IC50 is 6.11 µM (active).

**Q.** And the AC50 [11]?
**A.** The AC50 was 52.8 µM (active).

**Q.** Which EC50 [12] does the source give for `Cc1ccc(C(C(=O)NC2CCCCC2)N2CCCC2)cc1` (stereo not given) here?
**A.** The EC50 was > 50 µM (not active).

**Q.** For `CN(C)CCCN(C(=O)c1ccc(S(=O)(=O)N2CCc3ccccc3C2)cc1)c1nc2c(F)cccc2s1`, which EC50 [13] is on record?
**A.** Its EC50 is > 100 µM (inactive).

**Q.** With `O=C(N/N=C/c1cccs1)c1ccc2[nH]cnc2c1` as the compound, how does the EC50 [7] read?
**A.** Its EC50 is > 50 µM (active).
